Like-named read-outs stand apart in the source and are kept apart here.
How the values were obtained:
[1] = test system: HTLV-III (strain RF); assay: In vitro antiviral activity: HTLV-III (strain RF) in C8166 cells, p24 antigen capture assay; type: cell-based; conditions: Human immunodeficiency virus 1; concentration that produces 50% protection; C8166 cells infected with ten times the TCD₅₀, 72 hours at 37°C, viral protein 24 antigen capture; read-out: IC₅₀ Activity against HIV
Procedure: This assay uses HTLV-III (strain RF) grown in C8166 cells (a human CD4⁺ T lymphoblastoid line) using RPM1 1640 medium with bicarbonate buffer, antibiotics and 10% foetal bovine serum.
A suspension of cells is infected with ten times the TCD₅₀ of virus and adsorption allowed to proceed for 90 minutes at 37°C. The cells are washed three times with medium. The test is carried out in 6 ml tissue culture tubes, each tube containing 2 x 10⁵ infected cells in 1.5 ml of medium. Test compounds are dissolved in either aqueous medium or dimethyl sulphoxide, according to solubility, and a 15 µl solution of the compound added. The cultures are incubated at 37°C for 72 hours in a humidified atmosphere containing 5% carbon dioxide in air. The cultures are then centrifuged and an aliquot of the supernatant solubilized with Nonidet P40 and subjected to an antigen capture assay which uses a primary antiserum with particular reactivity against the viral protein 24 and a horseradish peroxidase detection system. Colour generation is measured spectrophotometrically and plotted against the concentration of test compound. The concentration that produces 50% protection is determined (IC₅₀).

[2] = biological target: T1, HIV protease (Human immunodeficiency virus type 1 group M subtype B, UniProt P04585); assay: In vitro inhibition of HIV protease (spectrophotometric assay of N-terminal proline from cleavage of substrate S¹ or S²); type: biochemical; conditions: citrate buffer pH 5.5, 37°C
T1 construct: HIV protease was expressed in E. coli and partially purified from soluble extracts; made in house; host or cells: E. coli
Procedure: HIV protease was expressed in E. coli and partially purified from soluble extracts of the bacterium by ammonium sulphate fractionation (0-30%). Protease activity was assayed using as the substrate the protected hexapeptide succinyl-Ser-Leu-Asn-Tyr-Pro-Ile isobutylamide (S¹) or the protected heptapeptide succinyl-Val-Ser-Gln-Asn-Phe-Pro-Ile isobutylamide (S²). Cleavage of the substrate was quantified by measuring the production of H-Pro-Ile isobutylamide by the spectrophotometric assay of N-terminal proline.
1.25 mM of substrate S¹ or 0.68 mM of substrate S² were dissolved in 125 mM of citrate buffer (pH 5.5) containing 0.125 mg/ml of Tween 20. 10 µl of a solution of various concentrations of the test compound (dissolved in methanol or dimethyl sulphoxide and diluted with water containing 0.1% Tween 20) and 10 µl of protease were added to 80 µl of the respective buffered substrate. Digestion was carried out at 37°C for a fixed period of time and was terminated by the addition of 1 ml of colour reagent [30 µg/ml of isatin and 1.5 mg/ml of 2-(4-chlorobenzoyl)benzoic acid in 10% acetone in ethanol (vol./vol.)]. The solution was heated in a boiling water bath for 15 minutes and then the pigmented residues were re-dissolved in 1 ml of 1% pyrogallol in 33% water in acetone (wt./vol./vol.). The optical density of the solution was measured spectrophotometrically at 599 nm. The formation of H-Pro-Ile isobutylamide in the presence of the test compound was compared with controls and the concentration of test compound required to give 50% inhibition (IC₅₀) was determined by means of a graph plotted from the various concentrations of test compound used.
In the above test the determination of the IC₅₀ values for potent inhibitors is limited by mutual depletion. In this respect, substrate S² is more sensitive than substrate S¹ and this allows reduced protease concentrations to be used, which results in lower IC₅₀ values. This will be seen from the results presented in the Table hereinafter where in turn the 2nd run with substrate S² was carried out using a lower protease concentration than in the 1st run which results again in lower IC₅₀ values.

[3] = substrate S² (succinyl-Val-Ser-Gln-Asn-Phe-Pro-Ile isobutylamide), 0.68 mM, 1st run, read-out: IC₅₀ Inhibition of HIV protease S² 1st run
[4] = substrate S², 0.68 mM, 2nd run, lower protease concentration than in the 1st run, read-out: IC₅₀ Inhibition of HIV protease S² 2nd run
[5] = substrate S¹ (succinyl-Ser-Leu-Asn-Tyr-Pro-Ile isobutylamide), 1.25 mM, read-out: IC₅₀ Inhibition of HIV protease S¹

| Structure (SMILES) | IC50 [1] [nM] | IC50 [2, 3] [nM] | IC50 [2, 4] [nM] | IC50 [2, 5] [nM] |
| --- | --- | --- | --- | --- |
| CC[C@H](C)[C@H](NC(=O)[C@@H](C[C@H](O)[C@H](CC1CCCCC1)NC(=O)OC(C)(C)C)C(C)C)C(=O)NCCc1ccccc1 [Compound A, N²-[5(S)-(tert.Butoxyformamido)-6-cyclohexyl-4(S)-hydroxy-2(S)-isopropylhexanoyl]-N¹-phenethyl-L-isoleucinamide] | 100 | 4.5 | 0.62 | 12 |
| CC[C@H](C)[C@H](NC(=O)[C@@H](C[C@H](O)[C@H](CC1CCCCC1)NC(=O)OC(C)(C)C)C(C)C)C(=O)N[C@@H](Cc1ccccc1)C(=O)OC [Compound B, N-[N-[5(S)-(tert.Butoxyformamido)-6-cyclohexyl-4(S)-hydroxy-2(S)-isopropylhexanoyl]-L-isoleucyl]-L-phenylalanine methyl ester] | – | 3.4 | 0.48 | 20 |
| CC[C@H](C)[C@H](NC(=O)[C@@H](C[C@H](O)[C@H](CC1CCCCC1)NC(=O)OC(C)(C)C)C(C)C)C(=O)NCc1ccccc1 [Compound C, N²-[5(S)-(tert.Butoxyformamido)-6-cyclohexyl-4(S)-hydroxy-2(S)-isopropylhexanoyl]-N¹-benzyl-L-isoleucinamide] | 7 | 3.3 | – | 15 |
| CC[C@H](C)[C@H](NC(=O)[C@@H](C[C@H](O)[C@H](CC1CCCCC1)NC(=O)OC(C)(C)C)C(C)C)C(=O)NCCc1ccccn1 [Compound D, N²-[5(S)-(tert.Butoxyformamido)-6-cyclohexyl-4(S)-hydroxy-2(S)-isopropylhexanoyl]-N¹-[2-(2-pyridyl)ethyl]-L-isoleucinamide] | 20 | 2.5 | 0.52 | – |
| CC[C@H](C)[C@H](NC(=O)[C@@H](C[C@H](O)[C@H](CC1CCCCC1)NC(=O)OC(C)(C)C)C(C)C)C(=O)NC1Cc2ccccc2C1 [Compound E, N²-[5(S)-(tert.Butoxyformamido)-6-cyclohexyl-4(S)-hydroxy-2(S)-isopropylhexanoyl]-N¹-(2-indanyl)-L-isoleucinamide] | 70 | 4.3 | 2.2 | – |
| CC[C@H](C)[C@H](NC(=O)[C@@H](C[C@H](O)[C@H](CC1CCCCC1)NC(=O)OC(C)(C)C)C(C)C)C(=O)NCCN1CCOCC1 [Compound F, N²-[5(S)-(tert.Butoxyformamido)-6-cyclohexyl-4(S)-hydroxy-2(S)-isopropylhexanoyl]-N¹-(2-morpholinoethyl)-L-isoleucinamide] | 100 | 4 | 1.9 | – |
| CC[C@H](C)[C@H](NC(=O)[C@@H](C[C@H](O)[C@H](Cc1ccccc1)NC(=O)OC(C)(C)C)C(C)C)C(=O)NCCc1ccccc1 [Compound G, N²-[5(S)-(tert.Butoxyformamido)-4(S)-hydroxy-2(S)-isopropyl-6-phenylhexanoyl]-N¹-phenethyl-L-isoleucinamide] | 100 | 4.1 | 0.89 | 32 |
| CC[C@H](C)[C@H](NC(=O)[C@@H](C[C@H](O)[C@H](CC1CCCCC1)NC(=O)OCc1ccccc1)C(C)C)C(=O)NCCc1ccccc1 [Compound H, N²-[5(S)-Benzyloxyformamido-6-cyclohexyl-4(S)-hydroxy-2(S)-isopropylhexanoyl]-N¹-phenethyl-L-isoleucinamide] | 60 | 3 | 0.91 | 22 |
| CC[C@H](C)[C@H](NC(=O)[C@@H](C[C@H](O)[C@H](CC1CCCCC1)NC(=O)[C@H](CC(N)=O)NC(=O)OCc1ccccc1)C(C)C)C(=O)NCCc1ccccc1 [Compound I, N²-[5(S)-[[N-(Benzyloxycarbonyl)-L-asparaginyl]amino]-6-cyclohexyl-4(S)-hydroxy-2(S)-isopropylhexanoyl]-N¹-phenethyl-L-isoleucinamide] | 9 | 2.5 | 0.39 | 80 |
| CC[C@H](C)[C@H](NC(=O)[C@@H](C[C@H](O)[C@H](CC1CCCCC1)NC(=O)CC(C)(C)C)C(C)C)C(=O)NCCc1ccccc1 [Compound J, N²-[5(S)-(tert.Butylacetamido)-6-cyclohexyl-4(S)-hydroxy-2(S)-isopropylhexanoyl]-N¹-phenethyl-L-isoleucinamide] | 100 | 7.7 | – | – |
| CC[C@H](C)[C@H](NC(=O)[C@@H](C[C@H](O)[C@H](CC1CCCCC1)NC(=O)[C@H](CC#N)NC(=O)OCc1ccccc1)C(C)C)C(=O)NCCc1ccccc1 [Compound K, N²-[5(S)-[[N-(Benzyloxycarbonyl)-β-cyano-L-alanyl]amino]-6-cyclohexyl-4(S)-hydroxy-2(S)-isopropylhexanoyl]-N¹-phenethyl-L-isoleucinamide] | 4 | – | 1.6 | – |
| CC[C@H](C)[C@H](NC(=O)[C@@H](C[C@H](O)[C@H](CC1CCCCC1)NC(=O)OC(C)(C)C)C(C)C)C(=O)NCCN1CCN(C(=O)OCc2ccccc2)CC1 [Compound L, N¹-[2-[4-(Benzyloxycarbonyl)-1-piperazinyl]ethyl]-N²-[5(S)-(tert.butoxyformamido)-6-cyclohexyl-4(S)-hydroxy-2(S)-isopropylhexanoyl]-L-isoleucineamide] | 5 | – | 2.7 | – |
| CC[C@H](C)[C@H](NC(=O)[C@@H](C[C@H](O)[C@H](CC1CCCCC1)NC(=O)OC(C)(C)C)C(C)C)C(=O)NCCc1ccc(O)cc1 [Compound M, N²-[5(S)-(tert.Butoxyformamido)-6-cyclohexyl-4(S)-hydroxy-2(S)-isopropylhexanoyl]-N¹-[2-(4-hydroxyphenyl)ethyl]-L-isoleucinamide] | 10 | – | 3.7 | – |
| CC[C@H](C)[C@H](NC(=O)[C@H](C(C)C)[C@@H](O)[C@H](O)[C@H](CC1CCCCC1)NC(=O)OC(C)(C)C)C(=O)NCCN1CCN(C(=O)OCc2ccccc2)CC1 [Compound N, N¹-[2-[4-(Benzyloxycarbonyl)-1-piperazinyl]ethyl]-N²-[5(S)-(tert.butoxyformamido)-6-cyclohexyl-3(R),4(R)-dihydroxy-2(R)-isopropylhexanoyl]-L-isoleucinamide] | < 100 | – | 4.1 | – |
